Laboratory results from ChEMBL document CHEMBL3621157, “Design, synthesis and biological evaluation of novel 1,2,4-triazolo and 1,2,4-triazino[4,3-a]quinoxalines as potential anticancer and antimicrobial agents” (2015).
Converted amounts (≈) assume the structure as drawn.

What was measured:
Format in all cases: functional
Staphylococcus aureus [1] = assay: Antimicrobial activity against Staphylococcus aureus DSM 1104 incubated at 37 degC for 24 hrs by cup diffusion method
Bacillus subtilis [2] = assay: Antimicrobial activity against Bacillus subtilis ATCC 6633 incubated at 37 degC for 24 hrs by cup diffusion method
Pseudomonas aeruginosa [3] = assay: Antimicrobial activity against Pseudomonas aeruginosa ATCC 10145 incubated at 37 degC for 24 hrs by cup diffusion method
Escherichia coli [4] = assay: Antimicrobial activity against Escherichia coli ATCC 11775 incubated at 37 degC for 24 hrs by cup diffusion method
Candida albicans [5] = assay: Antimicrobial activity against Candida albicans DSM 70014 incubated at 37 degC for 48 hrs by cup diffusion method
Staphylococcus aureus [6] = assay: Antimicrobial activity against Staphylococcus aureus DSM 1104 incubated for 24 hrs by two-fold serial broth dilution method; conditions: DSM 1104, 24 h
Staphylococcus aureus [7] = assay: Antimicrobial activity against Staphylococcus aureus DSM 1104 incubated for 24 hrs followed by transfer of colonies to Muller-Hinton agar plate and measured after 18 hrs by two-fold serial broth dilution method
Bacillus subtilis [8] = assay: Antimicrobial activity against Bacillus subtilis ATCC 6633 incubated for 24 hrs by two-fold serial broth dilution method; conditions: ATCC 6633, 24 h
Bacillus subtilis [9] = assay: Antimicrobial activity against Bacillus subtilis ATCC 6633 incubated for 24 hrs followed by transfer of colonies to Muller-Hinton agar plate and measured after 18 hrs by two-fold serial broth dilution method
Pseudomonas aeruginosa [10] = assay: Antimicrobial activity against Pseudomonas aeruginosa ATCC 10145 incubated for 24 hrs by two-fold serial broth dilution method; conditions: ATCC 10145, 24 h
Pseudomonas aeruginosa [11] = assay: Antimicrobial activity against Pseudomonas aeruginosa ATCC 10145 incubated for 24 hrs followed by transfer of colonies to Muller-Hinton agar plate and measured after 18 hrs by two-fold serial broth dilution method
Escherichia coli [12] = assay: Antimicrobial activity against Escherichia coli ATCC 11775 incubated for 24 hrs by two-fold serial broth dilution method; conditions: ATCC 11775, 24 h
Escherichia coli [13] = assay: Antimicrobial activity against Escherichia coli ATCC 11775 incubated for 24 hrs followed by transfer of colonies to Muller-Hinton agar plate and measured after 18 hrs by two-fold serial broth dilution method
Candida albicans [14] = assay: Antimicrobial activity against Candida albicans DSM 70014 incubated for 48 hrs by two-fold serial broth dilution method; conditions: DSM 70014, 48 h
Candida albicans [15] = assay: Antimicrobial activity against Candida albicans DSM 70014 incubated for 48 hrs followed by transfer of colonies to Muller-Hinton agar plate and measured after 18 hrs by two-fold serial broth dilution method
NCI-H226 = assay: Growth inhibition of human NCI-H226 cells at 10 uM incubated for 48 hrs by sulforhodamine B assay; conditions: NCI-H226, 48 h, read-out: GI
SNB-75 = assay: Growth inhibition of human SNB75 cells at 10 uM incubated for 48 hrs by sulforhodamine B assay; conditions: SNB-75, 48 h, read-out: GI
A498 = assay: Growth inhibition of human A498 cells at 10 uM incubated for 48 hrs by sulforhodamine B assay; conditions: A498, 48 h, read-out: GI
PC-3 = assay: Growth inhibition of human PC3 cells at 10 uM incubated for 48 hrs by sulforhodamine B assay; conditions: PC-3, 48 h, read-out: GI
UO-31 = assay: Growth inhibition of human UO31 cells at 10 uM incubated for 48 hrs by sulforhodamine B assay; conditions: UO-31, 48 h, read-out: GI
[16] = Growth inhibition of human HOP92 cells at 10 uM incubated for 48 hrs by sulforhodamine B assay; conditions: HOP-92, 48 h, read-out: GI
[17] = Growth inhibition of human NCI-ADR-RES cells at 10 uM incubated for 48 hrs by sulforhodamine B assay; conditions: read-out: GI

| Structure (SMILES) | inhibition zone (IZ) (Staphylococcus aureus [1]) [mm] | inhibition zone (IZ) (Bacillus subtilis [2]) [mm] | inhibition zone (IZ) (Pseudomonas aeruginosa [3]) [mm] | inhibition zone (IZ) (Escherichia coli [4]) [mm] | inhibition zone (IZ) (Candida albicans [5]) [mm] | MIC (Staphylococcus aureus [6]) [µg/mL] | MBC (Staphylococcus aureus [7]) [µg/mL] | MIC (Bacillus subtilis [8]) [µg/mL] | MBC (Bacillus subtilis [9]) [µg/mL] | MIC (Pseudomonas aeruginosa [10]) [µg/mL] | MBC (Pseudomonas aeruginosa [11]) [µg/mL] | MIC (Escherichia coli [12]) [µg/mL] | MBC (Escherichia coli [13]) [µg/mL] | MIC (Candida albicans [14]) [µg/mL] | MFC (Candida albicans [15]) [µg/mL] | inhibition of growth at 10 µM (SNB-75) [%] | inhibition of growth at 10 µM (UO-31) [%] | other results |
| --- | --- | --- | --- | --- | --- | --- | --- | --- | --- | --- | --- | --- | --- | --- | --- | --- | --- | --- |
| c1ccc(Cc2nc3ccccc3n3cnnc23)cc1 | 17 | 12 | 14 | 12 | 17 | 50 (≈ 192 µM) | 100 (≈ 384 µM) | 50 (≈ 192 µM) | 50 (≈ 192 µM) | 50 (≈ 192 µM) | 100 (≈ 384 µM) | 25 (≈ 96 µM) | 25 (≈ 96 µM) | 100 (≈ 384 µM) | 200 (≈ 768 µM) | 23.5 | 22.7 | inhibition of growth at 10 µM (NCI-H226): 15.5%; inhibition of growth at 10 µM (A498): 38.7%; inhibition of growth at 10 µM (PC-3): 14.2% |
| Cc1nnc2c(Cc3ccccc3)nc3ccccc3n12 | 12 | 13 | 11 | 12 | 14 | 50 (≈ 182 µM) | 100 (≈ 365 µM) | 50 (≈ 182 µM) | 100 (≈ 365 µM) | 100 (≈ 365 µM) | 100 (≈ 365 µM) | 50 (≈ 182 µM) | 50 (≈ 182 µM) | 100 (≈ 365 µM) | 200 (≈ 729 µM) | 21.9 | – | inhibition of growth at 10 µM [16]: 17.6%; inhibition of growth at 10 µM (NCI-H226): 15.1%; inhibition of growth at 10 µM [17]: 12.6% |
| O=[N+]([O-])c1ccc(-c2nnc3c(Cc4ccccc4)nc4ccccc4n23)cc1 | 14 | 12 | 12 | 14 | 15 | 50 (≈ 131 µM) | 100 (≈ 262 µM) | 100 (≈ 262 µM) | 100 (≈ 262 µM) | 50 (≈ 131 µM) | 50 (≈ 131 µM) | 100 (≈ 262 µM) | 100 (≈ 262 µM) | 25 (≈ 65.5 µM) | 50 (≈ 131 µM) | – | – | – |
| Brc1ccc(C2=NN=C3C(Cc4ccccc4)=Nc4ccccc4N3C2)cc1 | 12 | 12 | 12 | 14 | 14 | 50 (≈ 116 µM) | 50 (≈ 116 µM) | 50 (≈ 116 µM) | 50 (≈ 116 µM) | 100 (≈ 233 µM) | 100 (≈ 233 µM) | 50 (≈ 116 µM) | 50 (≈ 116 µM) | 50 (≈ 116 µM) | 50 (≈ 116 µM) | – | – | – |
| CCOC(=O)C/C(C)=N\Nc1nc2ccccc2nc1Cc1ccccc1 | 15 | 12 | 12 | 14 | 14 | 100 (≈ 276 µM) | 100 (≈ 276 µM) | 50 (≈ 138 µM) | 50 (≈ 138 µM) | 100 (≈ 276 µM) | 100 (≈ 276 µM) | 50 (≈ 138 µM) | 100 (≈ 276 µM) | 50 (≈ 138 µM) | 100 (≈ 276 µM) | – | 15.8 | inhibition of growth at 10 µM (A498): 17.8% |
| O=c1[nH]nc2c(Cc3ccccc3)nc3ccccc3n12 | 16 | 16 | 12 | 10 | 14 | 100 (≈ 362 µM) | 200 (≈ 724 µM) | 100 (≈ 362 µM) | 200 (≈ 724 µM) | 100 (≈ 362 µM) | 100 (≈ 362 µM) | 100 (≈ 362 µM) | 100 (≈ 362 µM) | 50 (≈ 181 µM) | 100 (≈ 362 µM) | – | 35.5 | inhibition of growth at 10 µM (A498): 28.6% |
| O=C(O)CCc1nnc2c(Cc3ccccc3)nc3ccccc3n12 | 13 | 12 | 12 | 15 | 16 | 25 (≈ 75.2 µM) | 50 (≈ 150 µM) | 12.5 (≈ 37.6 µM) | 25 (≈ 75.2 µM) | 25 (≈ 75.2 µM) | 25 (≈ 75.2 µM) | 12.5 (≈ 37.6 µM) | 25 (≈ 75.2 µM) | 50 (≈ 150 µM) | 100 (≈ 301 µM) | 17.7 | 12.2 | inhibition of growth at 10 µM [16]: 18.9% |
| CCOC(=O)c1nnc2c(Cc3ccccc3)nc3ccccc3n12 | 14 | 13 | 10 | 12 | 15 | 50 (≈ 150 µM) | 50 (≈ 150 µM) | 50 (≈ 150 µM) | 100 (≈ 301 µM) | 100 (≈ 301 µM) | 100 (≈ 301 µM) | 50 (≈ 150 µM) | 50 (≈ 150 µM) | 25 (≈ 75.2 µM) | 50 (≈ 150 µM) | 10.3 | 15.1 | – |
| CCOC(=O)Cc1nnc2c(Cc3ccccc3)nc3ccccc3n12 | 14 | 14 | 14 | 15 | 12 | 50 (≈ 144 µM) | 100 (≈ 289 µM) | 100 (≈ 289 µM) | 100 (≈ 289 µM) | 100 (≈ 289 µM) | 100 (≈ 289 µM) | 100 (≈ 289 µM) | 100 (≈ 289 µM) | 25 (≈ 72.2 µM) | 25 (≈ 72.2 µM) | – | – | – |
| CC1(C)S[C@@H]2[C@H](NC(=O)[C@H](N)c3ccccc3)C(=O)N2[C@H]1C(=O)O [AMPICILLIN] | – | – | – | – | – | 5 (≈ 14.3 µM) | – | 12.5 (≈ 35.8 µM) | – | 50 (≈ 143 µM) | – | 10 (≈ 28.6 µM) | – | – | – | – | – | – |
| Clc1ccccc1C(c1ccccc1)(c1ccccc1)n1ccnc1 [CLOTRIMAZOLE] | – | – | – | – | – | – | – | – | – | – | – | – | – | 5 (≈ 14.5 µM) | – | – | – | – |
